Values after ≈ are worked out from the molar mass of the structure shown. Where two headings read alike, the source gives them in different places. Where a SMILES comes first, the peptide text is derived from it. Bridges are numbered along the chain shown (N, C = ends). [ ]: non-standard residue; d: D form. dAgb = N=C(N)NCC[C@@H](N)C(=O)O; βAla = NCCC(=O)O
How the values were obtained:
[1] = system: K. pneumoniae clinical isolates; test: microbe, parasite or virus in culture
Description: (§1) Subcultures, prepared by inoculating 25 mL of fresh tryptic soy broth (TSB) with 200 μL of an overnight culture, were grown to log phase (OD600 = 0.3–0.6), after which cell counts were determined by measuring the OD600 (1.0 = 5 × 10^8 CFU/mL for E. coli, 4 × 10^8 CFU/mL for K. pneumoniae, 4 × 10^8 CFU/mL for P. aeruginosa, 1.5 × 10^8 CFU/mL for S. aureus). Bacterial cells were diluted to appropriate concentrations in TSB. We used the following clinical bacterial isolates of Klebsiella pneumoniae in this study: Strains KP6, KP46, NDM-1, KP396, and KP398 have been previously described.[43] ST58 strains C2, C3, and I2 are also described.[41] […] MRSA, […] S. aureus strain, is SAP400, a USA400 strain of community-acquired MRSA. […] The second independent set of K. pneumoniae isolates are previously described.[20],[21]
The antibiotics were serially diluted by a factor of 2:3 horizontally across 96-well plates from Corning, 25 μL per well. One column was reserved for controls. For the assays performed in the presence of RBC, type O+ human RBCs at 0 or 2.5 × 10^9 cells/mL were added in 50 μL aliquots to all wells. […] To assess bacterial growth in the assays with RBC, the OD600 was measured after a second-day inoculation with 10 μL of solution from the original plate added to 100 μL of sterile TSB followed by overnight incubation.
(§2) Experiments were repeated four to eight times independently, with pairs of replicate measurements on each 96-well plate. After overnight growth, optical densities were measured at 660 nm and the sterilized wells were identified by having O.D. < 0.08. Nonsterilized wells were nearly opaque with OD > 0.6. For each measurement, we recorded the largest dilution that sterilized the bacteria. Statistics are done on dilution numbers, rather than calculated concentrations, because only the former have normal distributions.

[2] = system: MRSA SAP400, a USA400 strain; test: microbe, parasite or virus in culture
Description: as §1
(§3) The antibiotics were serially diluted by a factor of 2:3 horizontally across 96-well plates from Corning, 25 μL per well. One column was reserved for controls. For the assays performed in the presence of RBC, type O+ human RBCs at 0 or 2.5 × 10^9 cells/mL were added in 50 μL aliquots to all wells. Following a 30-min incubation, 50 μL of TSB, inoculated with 5 × 10^5 CFU/mL, was added to all wells, and plates were incubated overnight at 37 °C. Following overnight incubation at 37 °C, the OD600 was measured (values of less than 0.1 were considered sterilized). To assess bacterial growth in the assays with RBC, the OD600 was measured after a second-day inoculation with 10 μL of solution from the original plate added to 100 μL of sterile TSB followed by overnight incubation.
as §2

[3] = system: Pseudomonas aeruginosa clinical isolates; test: microbe, parasite or virus in culture
Description: as §1, §3, §2

human RBCs = format: cell-based
Description: Human O+ erythrocytes were obtained from Interstate Blood Bank, Inc. Red blood cells were subjected to four or more cycles of centrifugation at 1000g with resuspension in fresh PBS. Following the final wash step, the supernatant was clear and colorless. RBC concentration was determined using a standard hemocytometer.
Peptide was serially diluted in PBS starting at a concentration of 100 μM. The final volume of peptide in each well was 50 μL. To each well, 50 μL of RBCs in PBS at 2 × 10^8 cells/mL was added. As a positive lysis control, 1% Triton was used. The mixtures were incubated at 37 °C for 1 h, after which they were centrifuged at 1000g for 5 min. After centrifugation, 10 μL of supernatant was transferred to 90 μL of DI H2O in a fresh 96-well plate. The absorbance of released hemoglobin at 410 nm was recorded, and the fractional hemolysis was calculated based on the 100 and 0% lysis controls. At least three independent experiments were performed. Results shown are averages.

[4] = system: K. pneumoniae clinical isolates
Description: as §1, §3, §2

[5] = system: Acinetobacter baumannii (PDR) Tulane isolate
[6] = system: Escherichia coli (ATCC 25922)
Description: (§4) All peptide variants were synthesized and purified as described previously.[5],[7] They were tested in broth dilution in the presence and absence of 1 × 10^9 human RBCs per mL, 20% of the concentration in human blood, against Escherichia coli, K. pneumoniae, and Staphylococcus aureus. […] The toxicity of the variants was tested by measuring hemolysis as well as cytotoxicity against human WI-38 fibroblast cells.
as §1, §3, §2

[7] = system: WI-38 human fibroblast cells; test: in vitro; format: cell-based
Description: (§5) The day before cytotoxicity experiments, the 10,000 cells/well were plated in a 96-well tissue-culture plate. […] To perform the cytotoxicity assay, media was removed from the wells and replaced with peptide solutions. […] The plate was read for SYTOX fluorescence every 5 min for an hour with an excitation wavelength of 504 nm and an emission wavelength of 523 nm. Percent cytotoxicity was calculated at 60 min using the 100 and 0% lysis controls. At least three independent experiments were averaged.

S. aureus (ATCC 25923) = system: S. aureus (ATCC 25923)
Description: as §4, §1, §3, §2

in vitro = format: cell-based, human; conditions: human
Description: as §5

[8] = broth dilution, at least three independent measurements, SE about 40%, highest concentration 150 μM

CC(C)C[C@@H](NC(=O)[C@@H](CCCNC(=N)N)NC(=O)[C@@H](CCCNC(=N)N)NC(=O)[C@@H](C)NC(=O)[C@@H](Cc1c[nH]c2ccccc12)NC(=O)[C@@H](CCCNC(=N)N)NC(=O)[C@H](N)CCCNC(=N)N)C(=O)N[C@H](C)C(=O)N[C@H](Cc1ccccc1)C(=O)N[C@H](C)C(=O)N[C@H](Cc1ccccc1)C(=O)N[C@H](CCCNC(=N)N)C(=O)N[C@H](CCCNC(=N)N)C(N)=O [D-CONGA] (H-[dR][dR][dW][dA][dR][dR][dL][dA][dF][dA][dF][dR][dR]-NH2)
MIC, KP 6 ([1]; clinical isolates): 4.2 µM (≈ 7.4 µg/mL) | MIC, KP 46 ([1]; clinical isolates): 4.4 µM (≈ 7.75 µg/mL) | MIC, KP 398 ([1]; clinical isolates): 32 µM (≈ 56.4 µg/mL) | MIC, KP 2146NDM-1 ([1]; clinical isolates): 15 µM (≈ 26.4 µg/mL) | MIC, KP (CRE) ([1]; clinical isolates): 23 µM (≈ 40.5 µg/mL) | MIC, KP ATCC 33495 ([1]; clinical isolates): 5.0 µM (≈ 8.81 µg/mL) | MIC, KP ST258 C2 ([1]; clinical isolates): 64 µM (≈ 113 µg/mL) | MIC, KP ST258 C3 ([1]; clinical isolates): 92 µM (≈ 162 µg/mL) | MIC, KP ST258 I2 ([1]; clinical isolates): 3.2 µM (≈ 5.64 µg/mL) | MIC, KP ST396 ([1]; clinical isolates): 2.0 µM (≈ 3.52 µg/mL) | MIC, MRSA USA400 ([2]; USA400): 2.6 µM (≈ 4.58 µg/mL) | MIC, PA(mucoid) ([3]; clinical isolates): 4.4 µM (≈ 7.75 µg/mL) | MIC, PA(non-mucoid) ([3]; clinical isolates): 1.3 µM (≈ 2.29 µg/mL) | Hemolysis at 100 μM (fractional hemolysis) (human RBCs): 0.06 | K. Pneumoniae Isolate MIC, 1000527 [4]: > 25 µM | K. Pneumoniae Isolate MIC, 1002565 [4]: > 25 µM | K. Pneumoniae Isolate MIC, 1100770 [4]: 7.3 µM | K. Pneumoniae Isolate MIC, 1100975 [4]: 14 µM | K. Pneumoniae Isolate MIC, ATCC 43816 [4]: 5.4 µM | K. Pneumoniae Isolate MIC, ATCC 700721 [4]: 5.4 µM | K. Pneumoniae Isolate MIC, K6 [4]: 2.7 µM | K. Pneumoniae Isolate MIC, K 6.1 [4]: 14 µM | K. Pneumoniae Isolate MIC, K 6.2 [4]: 14 µM | K. Pneumoniae Isolate MIC, KP 80 [4]: 14 µM | K. Pneumoniae Isolate MIC, KP NIH 1 [4]: > 25 µM | K. Pneumoniae Isolate MIC, KP NIH 10 [4]: > 25 µM | K. Pneumoniae Isolate MIC, KP NIH 24 [4]: > 25 µM | K. Pneumoniae Isolate MIC, KP NIH 27 [4]: > 25 µM | K. Pneumoniae Isolate MIC, KP NIH 29 [4]: 14 µM | K. Pneumoniae Isolate MIC, KP NIH 30 [4]: 7.3 µM | K. Pneumoniae Isolate MIC, KP NIH 31 [4]: 7.3 µM | K. Pneumoniae Isolate MIC, KP NIH 32 [4]: > 25 µM | K. Pneumoniae Isolate MIC, KP NIH 33 [4]: 3.6 µM | MIC, AB (PDR)Tulane ([5]; PDR) Tulane isolate): 2.4 µM (≈ 4.23 µg/mL)

CC(C)C[C@H](NC(=O)[C@H](CCCNC(=N)N)NC(=O)[C@H](CCCNC(=N)N)NC(=O)[C@H](C)NC(=O)[C@H](Cc1c[nH]c2ccccc12)NC(=O)[C@H](CCCNC(=N)N)NC(=O)[C@H](N)CCCNC(=N)N)C(=O)N[C@@H](C)C(=O)N[C@@H](Cc1ccccc1)C(=O)N[C@@H](C)C(=O)N[C@@H](Cc1ccccc1)C(=O)N[C@@H](CCCNC(=N)N)C(=O)N[C@H](CCCNC(=N)N)C(N)=O [L-CONGA- (R1,R13)] (H-[dR]RWARRLAFAFR[dR]-NH2; N-terminus and C-terminus assumed)
Hemolysis at 100 μM (fractional hemolysis) (human RBCs): 0.01 | MIC in Broth Dilution, E. coli [6]: 26 µM (≈ 45.8 µg/mL) | EC50 [7]: 134 µM

CC(C)C[C@@H](NC(=O)[C@@H](CCNC(=N)N)NC(=O)[C@@H](CCNC(=N)N)NC(=O)[C@@H](C)NC(=O)[C@@H](Cc1c[nH]c2ccccc12)NC(=O)[C@@H](CCCNC(=N)N)NC(=O)[C@H](N)CCCNC(=N)N)C(=O)N[C@H](C)C(=O)N[C@H](Cc1ccccc1)C(=O)N[C@H](C)C(=O)N[C@H](Cc1ccccc1)C(=O)N[C@H](CCCNC(=N)N)C(=O)N[C@H](CCCNC(=N)N)C(N)=O [D-CONGA- NorR] (H-[dR][dR][dW][dA][dAgb][dAgb][dL][dA][dF][dA][dF][dR][dR]-NH2; N-terminus and C-terminus assumed)
MIC in Broth Dilution, S. Aureus (S. aureus (ATCC 25923)): 17 µM (≈ 29.5 µg/mL)

CC(C)C[C@@H]1NC(=O)[C@H](CCCNC(=N)N)NC(=O)[C@H](CCCNC(=N)N)NC(=O)[C@H](C)NC(=O)[C@H](Cc2c[nH]c3ccccc23)NC(=O)[C@H](CCCNC(=N)N)NC(=O)[C@H](CCCNC(=N)N)NC(=O)CC[C@@H](C(N)=O)NC(=O)[C@H](CCCNC(=N)N)NC(=O)[C@H](CCCNC(=N)N)NC(=O)[C@H](Cc2ccccc2)NC(=O)[C@H](C)NC(=O)[C@H](Cc2ccccc2)NC(=O)[C@H](C)NC1=O [L-CONGA-E cycl.] (RRWARRLAFAFRRE-NH2; lactam N-14)
Hemolysis at 100 μM (fractional hemolysis) (human RBCs): 0.03 | MIC in Broth Dilution, E. coli [6]: 23 µM (≈ 43.1 µg/mL)

CC(C)C[C@@H](NC(=O)[C@@H](CCCNC(=N)N)NC(=O)[C@H](CCCNC(=N)N)NC(=O)[C@@H](C)NC(=O)[C@@H](Cc1c[nH]c2ccccc12)NC(=O)[C@@H](CCCNC(=N)N)NC(=O)[C@H](N)CCCNC(=N)N)C(=O)N[C@H](C)C(=O)N[C@H](Cc1ccccc1)C(=O)N[C@@H](C)C(=O)N[C@H](Cc1ccccc1)C(=O)N[C@H](CCCNC(=N)N)C(=O)N[C@H](CCCNC(=N)N)C(N)=O [D-CONGA-L-R5,A10] (H-[dR][dR][dW][dA]R[dR][dL][dA][dF]A[dF][dR][dR]-NH2; N-terminus and C-terminus assumed)
Hemolysis at 100 μM (fractional hemolysis) (human RBCs): 0.04 | EC50 at 60 min (in vitro): > 1000 µM

CC(C)C[C@@H]1NC(=O)[C@H](CCCNC(=N)N)NC(=O)[C@H](CCCNC(=N)N)NC(=O)[C@H](C)NC(=O)[C@H](Cc2c[nH]c3ccccc23)NC(=O)[C@H](CCCNC(=N)N)NC(=O)[C@H](CCCNC(=N)N)NC(=O)[C@H](CCCNC(=N)N)NC(=O)[C@H](CCCNC(=N)N)NC(=O)[C@H](Cc2ccccc2)NC(=O)[C@H](C)NC(=O)[C@H](Cc2ccccc2)NC(=O)[C@H](C)NC1=O [L-CONGA-OH cycl.] (cyclo(RRWARRLAFAFRR))
Hemolysis at 100 μM (fractional hemolysis) (human RBCs): 0.07 | MIC in Broth Dilution, E. coli [6]: 13 µM (≈ 22.7 µg/mL)

CC(C)C[C@@H](NC(=O)CCNC(=O)[C@@H](CCCNC(=N)N)NC(=O)[C@@H](CCCNC(=N)N)NC(=O)[C@@H](C)NC(=O)[C@@H](Cc1c[nH]c2ccccc12)NC(=O)[C@@H](CCCNC(=N)N)NC(=O)[C@H](N)CCCNC(=N)N)C(=O)N[C@H](C)C(=O)N[C@H](Cc1ccccc1)C(=O)N[C@H](C)C(=O)N[C@H](Cc1ccccc1)C(=O)N[C@H](CCCNC(=N)N)C(=O)N[C@H](CCCNC(=N)N)C(N)=O [D-CONGA-βA7] (H-[dR][dR][dW][dA][dR][dR][βAla][dL][dA][dF][dA][dF][dR][dR]-NH2; N-terminus and C-terminus assumed)
Hemolysis at 100 μM (fractional hemolysis) (human RBCs): 0.02 | EC50 at 60 min (in vitro): > 1000 µM

gentamycin
MIC, KP 6 [1, 8]: > 150 µM | MIC, KP 46 [1, 8]: 1.6 µM | MIC, KP 398 [1, 8]: 1.9 µM | MIC, KP 2146NDM-1 [1, 8]: > 150 µM | MIC, KP (CRE) [1, 8]: 5.2 µM | MIC, KP ATCC 33495 [1, 8]: 1.9 µM | MIC, KP ST258 C2 [1, 8]: > 150 µM | MIC, KP ST258 C3 [1, 8]: > 150 µM | MIC, KP ST258 I2 [1, 8]: 8.3 µM | MIC, KP ST396 [1, 8]: 2.0 µM | MIC, MRSA USA400 [2, 8]: > 150 µM | MIC, PA(mucoid) [3, 8]: 5.5 µM | MIC, PA(non-mucoid) [3, 8]: 8.3 µM | MIC, AB (PDR)Tulane [5, 8]: > 150 µM
